Drawing on ChEMBL document CHEMBL1821645, “Synthesis and anticancer activity of (RS)-9-(2,3-dihydro-1,4-benzoxaheteroin-2-ylmethyl)-9H-purines” (Eur J Med Chem, 2011), this text covers Activity and IC50 for twelve molecules.

As a reminder, the IC50 is the concentration needed to halve the response being measured. A low value points to greater potency.

In assay [1] the test system is MCF7. Briefly: Induction of apoptosis in human MCF7 cells assessed as activation of caspase 9 at 3 times IC50 after 16 to 36 hrs by immunoblotting. In kind it is functional, cell-based. (In general: In western blotting, separated proteins are transferred to a membrane and probed.)
Assay [2] deals with Cellular tumor antigen p53 (Homo sapiens) (UniProt P04637). The assay can be described thus: Induction of p53 activation in human MCF7 cells assessed as phosphorylation at Ser15 at 3 times IC50 after 4 to 36 hrs by Western blot analysis. The format is cell-based.
For assay [3], the system named is MCF7. Briefly: Antiproliferative activity against human MCF7 cells after 3 days by sulforhodamine-B colorimetric assay. In kind it is functional, cell-based. Conditions: MCF7, 72 h. On the technique in general: The SRB assay estimates cell density from bound dye.
Assay [4] addresses Eukaryotic translation initiation factor 2 subunit 1 (Homo sapiens) (UniProt P05198). Briefly: Induction of eIF2alpha phosphorylation in human MCF7 cells at 3 times IC50 after 36 hrs by Western blot analysis. In kind it is cell-based.
For assay [5], the system named is MCF7. Briefly: Cell cycle arrest in human MCF7 cells assessed as accumulation at […] phase after 48 hrs by flow cytometry (reference value: 19.29 +/- 1.68 %). The format is functional. Background: A flow cytometer gives signals particle by particle.
In assay [6] the test system is MCF7. Briefly: Cell cycle arrest in human MCF7 cells assessed as accumulation at G2/M phase after 48 hrs by flow cytometry (reference value: 13.26 +/- 2.98 %). The format is functional.
The subject of assay [7] is MCF7. Briefly: Cell cycle arrest in human MCF7 cells assessed as accumulation at G0/G1 phase after 48 hrs by flow cytometry (reference value: 62.79 +/- 1.30 %). In kind it is functional.
Assay [8] concerns MCF7. Briefly: Induction of apoptosis in human MCF7 cells at 3 times IC50 after 48 hrs by using Annexin V-FITC staining by flow cytometry (reference value: 0.92 +/- 1.29 %). In kind it is functional.

The source made the active and inactive calls. No cut-off for these calls is given here.

Sequence of Cellular tumor antigen p53 (Homo sapiens) (P04637 whole entry, looked up): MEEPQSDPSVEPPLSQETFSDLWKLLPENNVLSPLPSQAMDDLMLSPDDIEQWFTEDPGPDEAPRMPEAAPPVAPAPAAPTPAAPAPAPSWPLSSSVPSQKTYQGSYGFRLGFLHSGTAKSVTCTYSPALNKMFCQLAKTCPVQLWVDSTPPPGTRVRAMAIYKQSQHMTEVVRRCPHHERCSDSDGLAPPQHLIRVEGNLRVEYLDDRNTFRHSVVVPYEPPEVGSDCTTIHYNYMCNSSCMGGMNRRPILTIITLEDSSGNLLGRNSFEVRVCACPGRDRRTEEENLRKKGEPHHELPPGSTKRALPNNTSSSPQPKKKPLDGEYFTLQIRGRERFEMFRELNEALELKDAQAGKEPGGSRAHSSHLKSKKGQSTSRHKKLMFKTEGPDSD
Sequence of Eukaryotic translation initiation factor 2 subunit 1 (Homo sapiens) (P05198 whole entry): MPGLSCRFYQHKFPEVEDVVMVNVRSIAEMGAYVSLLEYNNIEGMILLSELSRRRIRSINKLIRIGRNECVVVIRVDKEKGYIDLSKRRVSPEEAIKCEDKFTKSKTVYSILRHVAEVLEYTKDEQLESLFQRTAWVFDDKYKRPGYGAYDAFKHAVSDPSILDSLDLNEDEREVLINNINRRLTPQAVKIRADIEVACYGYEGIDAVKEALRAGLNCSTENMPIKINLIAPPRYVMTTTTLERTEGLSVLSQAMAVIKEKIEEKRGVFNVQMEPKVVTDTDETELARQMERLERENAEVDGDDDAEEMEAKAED

Take `CC(=O)O[C@H]1C(=O)[C@@]2(C)[C@H]([C@H](OC(=O)c3ccccc3)[C@]3(O)C[C@H](OC(=O)[C@H](O)[C@@H](NC(=O)c4ccccc4)c4ccccc4)C(C)=C1C3(C)C)[C@]1(OC(C)=O)CO[C@@H]1C[C@@H]2O`: in the assay on MCF7 [1], the outcome was Active. Also, the result in assay [2] was inactive.

As to `Clc1ncnc2c1ncn2CC1COc2ccccc2S1` (racemic), half-maximal inhibition in the assay with MCF7 [3] (IC50) was put at 10.6 µM.

Turning to `Brc1ncnc2c1ncn2CC1COc2ccccc2S1` (racemic), in the assay on MCF7 [3], the IC50 turned out to be 6.18 µM. This IC50 is about 1.7-fold lower than that of the molecule before.

In the assay on MCF7 [3], `Clc1nc(Cl)c2ncn(CC3COc4ccccc4S3)c2n1` (racemic) showed an IC50 of 8.97 µM. The IC50 values of the last two molecules are within 1.5-fold of each other.

For `Clc1ncnc2c1ncn2CC1CSc2ccccc2O1` (racemic), the outcome (in the assay on MCF7 [1]; in assay [4]) was Active. Besides, the Activity in the assay with MCF7 [5] was determined as 13.77%; with MCF7 [6] it was 23.35%; in the assay on MCF7 [7], 62.87%; with MCF7 [8] it was 37.99%. In addition, the result in assay [2] was inactive. The IC50 in the assay with MCF7 [3] is 9.24 µM.

As to `Brc1ncnc2c1ncn2CC1CSc2ccccc2O1` (racemic), the result (in the assay on MCF7 [1]; in assay [4]) was Active. Also, the Activity with MCF7 [5] came to 17.06%; in the assay on MCF7 [6] it was 31.37%; with MCF7 [7], 51.56%; with MCF7 [8], 14.33%. The result in assay [2] was inactive. This molecule also displayed an IC50 in the assay on MCF7 [3] of 4.87 µM.

On to `Clc1nc(Cl)c2ncn(CC3CSc4ccccc4O3)c2n1` (racemic), for which the outcome (in the assay with MCF7 [1]; in assay [4]) was Active. Also, the Activity is 10.83% with MCF7 [5], 43.89% with MCF7 [6], 45.28% with MCF7 [7] and 70.08% in the assay on MCF7 [8]. Moreover, the outcome in assay [2] was inactive. Besides, the IC50 with MCF7 [3] came out at 2.75 µM.

The molecule `Nc1ncnc2c1ncn2CC1CSc2ccccc2O1` (racemic) came in with an IC50 in the assay with MCF7 [3] of more than 30 µM.

The molecule `Clc1ncnc2c1ncn2CC1COc2ccccc2O1` (racemic) gave an IC50 in the assay on MCF7 [3] of 18.8 µM.

For the molecule `Brc1ncnc2c1ncn2CC1COc2ccccc2O1` (racemic), the Activity came out at 10.27% with MCF7 [5], 36.71% in the assay with MCF7 [6], 53.02% in the assay on MCF7 [7] and 21.66% with MCF7 [8]. This molecule also gave an IC50 with MCF7 [3] of 7.64 µM.

On to `Clc1nc(Cl)c2ncn(CC3COc4ccccc4O3)c2n1` (racemic), for which the IC50 in the assay on MCF7 [3] turned out to be 19.6 µM.

In turn, `Nc1ncnc2c1ncn2CC1COc2ccccc2O1` (racemic) registered an IC50 with MCF7 [3] of more than 30 µM.
